This passage reports ED50 and LD50 results from US4170649A, “1,4-Benzodiazepine derivatives, pharmaceutical compositions thereof, and process for their preparation” (Kali-Chemie Pharma GmbH, priority 1977, dated 1979).

Structures are written as SMILES. Like-named read-outs stand apart in the source and are kept apart here. Bounds are passed on as bounds.

The subject of data set [1] is hexobarbital-induced sleep in mice. The data set can be described thus: CNS-depressant properties: prolongation of hexobarbital-induced sleep in mice. The format is in vivo. The following applies: Mus musculus, 0.5 h, oral, 64 mg/kg hexobarbital i.v. 30 minutes after application, 50% of animals with side-posture 4 times as long as control. How it is done: The test compounds are orally applied to mice. Additionally, a dose of 64 mg/kg of hexobarbital is injected, i.v., into the animals 30 minutes after application of the test compound. The point of time at which the animals lie down on their side and the duration of this side-posture are determined and are compared with the postural behavior of animals which are treated only with hexobarbital. The ED50 is defined as the dose which causes 50% of the animals to maintain the side-wise posture for a period of time which is 4 times as long as the period of time during which the control animals remain in their side-wise lying posture (see J. W. Kemp, M. Tannhaeuser and E. A. Swinyard, Arch. int. Pharmacodyn. 193 (1971), p. 37-47).

The subject of data set [2] is isolation-induced aggressiveness in mice. The data set can be described thus: Inhibition of isolation-induced aggressiveness in mice (anti-aggressive and anxiety-relieving activity). The note with it: Mus musculus, oral, isolated mice, 50% reduction of aggressive behavior. Format: in vivo. How it is done:
Prior to carrying out the test, the mice are kept in strict isolation in single cages for a period of 4 weeks. After this period of isolation, mice which have been kept isolated spontaneously attack other mice which are introduced into their cage and had not been previously isolated. The test compounds are orally administered to the isolated mice and after a period of 30 minutes or 60 minutes after application, the dose which leads to a 50% reduction of the aggressive behavior is determined (according to a modified method described by Weischer and Opitz, Arch. int. Pharmacodyn. 195, 252 (1972)). The results which are obtained in this test are a valid indication of the activity of the tested compounds in relieving anxiety and stress-induced tensions.

Data set [3] deals with pentetrazole-induced convulsions. In words: Anti-convulsive activity against pentetrazole-induced spasms. Format: in vivo. The following applies: Mus musculus; oral, mice; 100 mg/kg pentetrazole s.c. 60 minutes after application; observed 45 minutes; read-out: Inhibition of Pentetrazole-induced convulsions ED50. As to the method: The protective effect of the test compounds against convulsion is determined after oral application to groups of six (6) mice each. 60 minutes after application of the test compounds, a doses of 100 mg/kg of pentetrazole is subcutaneously injected. The occurrance of clonic and tonic convulsions is observed during a total period of 45 minutes. the protective effect of the test compounds against convulsion is determined by comparison with simultaneously performed tests in control-animals. The effective dose ED50 is calculated from the probitlogarithmic dosage curves (according to a modified method disclosed by J. E. Blum et al, Arzneimittel-Forsch. 23, 377 (1973)).
The results which are obtained according to the above method, provide an indication of the anti-convulsive activity of the test compounds. In the pharmacological art, it is well-known that this anti-convulsive activity in animals is an important criterion for evaluating the clinical tranquilizer activity of compounds (see A. Suria and E. Costa, Journal de Pharmacologie, Suppl. No. 1, 5, 94 (1974) and G. Zbinden and L. O. Randall, Advances in Pharmacol. 5, 257, (1967)). The test results given in Table II show a clear superiority of the compounds according to the present invention as compared to chlordiazepoxide.

Data set [4] is described as follows: Acute 7-day toxicity in mice (LD50). The note with it: mouse, in vivo, white NMRI-mice not fed. As to the method: The acute 7-day-toxicity in white NMRI-mice is determined after administration of a single dose of the test compound per os or i.p. to the mice which had not been fed. The calculation of the LD50 is carried out by probitanalysis by means of electronic data processing (see L. Cavelli-Sforza, Gustav Fischer-Verlag, Stuttgart, (1964), Grundbegriffe der Biometrie, p. 153).

Where [5] appears, read: 0.5 h, 30 minutes after application, read-out: Inhibition of isolation-induced aggressiveness in mice ED50 (30').
Setting [6] is: 1 h, 60 minutes after application, read-out: Inhibition of isolation-induced aggressiveness in mice ED50 (60').
Setting [7] is: ip, single dose i.p., read-out: LD50 i.p.
The mark [8] stands for this setting: po, single dose per os, read-out: LD50 p.o.

`CN1C(=CC(N)=O)CN=C(c2ccccc2)c2cc(Cl)ccc21` [Compound No. 1, 7-chloro-1-methyl-2-carbamoylmethylene-5-phenyl-1,3-dihydro-2H-1,4-benzodiazepine]: the ED50 in data set [1] is 3.2 mg/kg; in data set [2] (setting [5]) it was 12.2 mg/kg; in data set [2] (setting [6]) it was 9.6 mg/kg; in data set [3], 2.4 mg/kg. Also, the LD50 at 168 h is 288 mg/kg in data set [4] (setting [7]) and > 1470 mg/kg in data set [4] (setting [8]).
In the case of `CN1C(=CC(N)=O)CN=C(c2ccccc2Cl)c2cc(Cl)ccc21` [Compound No. 2, 7-chloro-1-methyl-2-carbamoylmethylene-5-(2'-chlorophenyl)-1,3-dihydro-2H-1,4-benzodiazepine], the ED50 in data set [1] stood at 5 mg/kg; in data set [2] (setting [5]), 2.2 mg/kg; in data set [2] (setting [6]) it was 3.4 mg/kg; in data set [3], 0.1 mg/kg. In addition, the LD50 at 168 h in data set [4] (setting [7]) was 410 mg/kg; in data set [4] (setting [8]) it was > 1000 mg/kg.
Take `CN1C(=CC(N)=O)CN=C(c2ccccc2F)c2cc(Cl)ccc21` [Compound No. 3, 7-chloro-1-methyl-2-carbamoylmethylene-5-(2'-fluorophenyl)-1,3-dihydro-2H-1,4-benzodiazepine]: the ED50 in data set [1] worked out at 1.6 mg/kg; in data set [2] (setting [5]), 2.1 mg/kg; in data set [2] (setting [6]), 3.9 mg/kg; in data set [3], 0.4 mg/kg. Besides, the LD50 at 168 h in data set [4] (setting [7]) was 572 mg/kg; in data set [4] (setting [8]), > 1470 mg/kg.
`CN1C(=CC(N)=O)CN=C(c2ccccc2C(F)(F)F)c2cc(Cl)ccc21` [Compound No. 4, 7-chloro-1-methyl-2-carbamoylmethylene-5-(2'-trifluoromethylphenyl)-1,3-dihydro-2H-1,4-benzodiazepine]: the ED50 in data set [1] was found to be 3.1 mg/kg; in data set [2] (setting [5]) it was 31.1 mg/kg; in data set [2] (setting [6]) it was 31.1 mg/kg; in data set [3], 0.3 mg/kg. The figures for the LD50 at 168 h in data set [4] (setting [7]) and in data set [4] (setting [8]) were 287 mg/kg and > 1470 mg/kg, respectively.
Turning to `CN1C(=CC(N)=O)CN=C(c2ccccc2Cl)c2cc(Br)ccc21` [Compound No. 5, 7-bromo-1-methyl-2-carbamoylmethylene-5-(2'-chlorophenyl)-1,3-dihydro-2H-1,4-benzodiazepine], the ED50 in data set [1] was found to be 1.3 mg/kg; in data set [2] (setting [5]), 5.4 mg/kg; in data set [2] (setting [6]), 4.6 mg/kg; in data set [3], 0.3 mg/kg. In addition, the LD50 at 168 h in data set [4] (setting [7]) was > 1600 mg/kg; in data set [4] (setting [8]), > 1470 mg/kg.
As for `CN1C(=CC(N)=O)CN=C(c2ccccc2F)c2cc(Br)ccc21` [Compound No. 6, 7-bromo-1-methyl-2-carbamoylmethylene-5-(2'-fluorophenyl)-1,3-dihydro-2H-1,4-benzodiazepine], the ED50 in data set [1] was determined as 2.6 mg/kg; in data set [2] (setting [5]), 4.8 mg/kg; in data set [2] (setting [6]) it was 5.7 mg/kg; in data set [3] it was 0.4 mg/kg. For the same compound, the LD50 at 168 h was 574 mg/kg in data set [4] (setting [7]) and > 1470 mg/kg in data set [4] (setting [8]).
`CN1C(=CC(N)=O)CN=C(c2ccccc2Cl)c2cc([N+](=O)[O-])ccc21` [Compound No. 7, 7-nitro-1-methyl-2-carbamoylmethylene-5-(2'-chlorophenyl)-1,3-dihydro-2H-1,4-benzodiazepine]: the ED50 in data set [1] is 2.5 mg/kg; in data set [3], 1 mg/kg. Also, the LD50 at 168 h in data set [4] (setting [8]) is > 1470 mg/kg.
As for `CNC1=Nc2ccc(Cl)cc2C(c2ccccc2)=[N+]([O-])C1` [comparison, 7-chloro-2-methylamino-5-phenyl-3H-1,4-benzodiazepine-4-oxide, reference compound], the ED50 in data set [1] stood at 6 mg/kg; in data set [2] (setting [5]), 60 mg/kg; in data set [2] (setting [6]), 47 mg/kg; in data set [3] it was 5 mg/kg. Besides, the LD50 at 168 h in data set [4] (setting [7]) amounted to 300 mg/kg; in data set [4] (setting [8]) it was 903 mg/kg.

As a reminder, the ED50 is the dose at which the effect has come halfway, by size or by number of responders. Usually LD50 stands for the dose at which mortality reaches 50%.
